System: 439559-082-T-J2-PDC spheroid viability
Assay: Anticancer human tumor 439559-082-T-J2-PDC patient-derived colon adenocarcinoma cell line growth inhibition [POLQ]
Conditions: spheroids with HUVEC and MSC; for IC50: curve of first compound; for viability, T/C: stronger effect = lower value
Procedure, shortened: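 Complex spheroid viability model combining PDC tumour cells with endothelial (HUVEC) and MSC stromal cells. Novobiocin, ART-558 or RP6685 were tested singly and in combination with standard and investigational anticancer drugs. Each was titrated in half-log steps from near clinical Cmax, or from 10 microM where Cmax was unknown.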

[1] = second compound 0.0316 µM, first compound 0.0316 µM
[2] = second compound 0.0316 µM, first compound 0.1 µM
[3] = second compound 0.0316 µM, first compound 0.316 µM
[4] = second compound 0.0316 µM, first compound 1 µM
[5] = second compound 0.0316 µM, first compound 3.16 µM
[6] = second compound 0.0316 µM, first compound 10 µM
[7] = second compound 0.1 µM, first compound 0.0316 µM
[8] = second compound 0.1 µM, first compound 0.1 µM
[9] = second compound 0.1 µM, first compound 0.316 µM
[10] = second compound 0.1 µM, first compound 1 µM
[11] = second compound 0.1 µM, first compound 3.16 µM
[12] = second compound 0.1 µM, first compound 10 µM
[13] = second compound 0.316 µM, first compound 0.0316 µM
[14] = second compound 0.316 µM, first compound 0.1 µM
[15] = second compound 0.316 µM, first compound 0.316 µM
[16] = second compound 0.316 µM, first compound 1 µM
[17] = second compound 0.316 µM, first compound 3.16 µM
[18] = second compound 0.316 µM, first compound 10 µM
[19] = second compound 1 µM, first compound 0.0316 µM
[20] = second compound 1 µM, first compound 0.1 µM
[21] = second compound 1 µM, first compound 0.316 µM
[22] = second compound 1 µM, first compound 1 µM
[23] = second compound 1 µM, first compound 3.16 µM
[24] = second compound 1 µM, first compound 10 µM
[25] = second compound 3.16 µM, first compound 0.0316 µM
[26] = second compound 3.16 µM, first compound 0.1 µM
[27] = second compound 3.16 µM, first compound 0.316 µM
[28] = second compound 3.16 µM, first compound 1 µM
[29] = second compound 3.16 µM, first compound 3.16 µM
[30] = second compound 3.16 µM, first compound 10 µM
[31] = second compound 10 µM, first compound 0.0316 µM
[32] = second compound 10 µM, first compound 0.1 µM
[33] = second compound 10 µM, first compound 0.316 µM
[34] = second compound 10 µM, first compound 1 µM
[35] = second compound 10 µM, first compound 3.16 µM
[36] = second compound 10 µM, first compound 10 µM
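Note: spheroids exposed to compounds for seven days before readout.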
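Throughout, for viability, T/C: 100% = DMSO vehicle control viability.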

CC1COCCN1c1cc(C2(O)CC3CCC(C2)O3)c2cnn(-c3ccn[nH]3)c2n1 (centres undefined) + COC1C(OC(N)=O)C(O)C(Oc2ccc3c(O)c(NC(=O)c4ccc(O)c(CC=C(C)C)c4)c(=O)oc3c2C)OC1(C)C
IC50 (second compound 0.0316 µM): 2580 nM
IC50 (second compound 0.1 µM): 2620 nM
IC50 (second compound 0.316 µM): 2080 nM
IC50 (second compound 1 µM): 1920 nM
IC50 (second compound 3.16 µM): 1840 nM
IC50 (second compound 10 µM): 1250 nM
viability, T/C [1]: 97%
viability, T/C [2]: 89.6%
viability, T/C [3]: 67.5%
viability, T/C [4]: 58.4%
viability, T/C [5]: 48.7%
viability, T/C [6]: 45.1%
viability, T/C [7]: 95.1%
viability, T/C [8]: 86.9%
viability, T/C [9]: 68.4%
viability, T/C [10]: 58.3%
viability, T/C [11]: 46.9%
viability, T/C [12]: 46.8%
viability, T/C [13]: 99%
viability, T/C [14]: 83.1%
viability, T/C [15]: 69.9%
viability, T/C [16]: 56.8%
viability, T/C [17]: 42.2%
viability, T/C [18]: 46.3%
viability, T/C [19]: 93.6%
viability, T/C [20]: 89.5%
viability, T/C [21]: 66.5%
viability, T/C [22]: 56.1%
viability, T/C [23]: 48.2%
viability, T/C [24]: 42.4%
viability, T/C [25]: 89.2%
viability, T/C [26]: 85%
viability, T/C [27]: 65.3%
viability, T/C [28]: 54.3%
viability, T/C [29]: 47.9%
viability, T/C [30]: 45.5%
viability, T/C [31]: 89.1%
viability, T/C [32]: 87.4%
viability, T/C [33]: 66.4%
viability, T/C [34]: 52.5%
viability, T/C [35]: 46.7%
viability, T/C [36]: 44.8%

O=C(Nc1ccc(O)c(NS(=O)(=O)c2ccc(F)cc2)c1)c1ccc(-c2ccccc2)cc1 + COC1C(OC(N)=O)C(O)C(Oc2ccc3c(O)c(NC(=O)c4ccc(O)c(CC=C(C)C)c4)c(=O)oc3c2C)OC1(C)C
IC50 (second compound 0.0316 µM): > 10000 nM
IC50 (second compound 0.1 µM): > 10000 nM
IC50 (second compound 0.316 µM): > 10000 nM
IC50 (second compound 1 µM): > 10000 nM
IC50 (second compound 3.16 µM): > 10000 nM
IC50 (second compound 10 µM): > 10000 nM
viability, T/C [1]: 93.1%
viability, T/C [2]: 94.8%
viability, T/C [3]: 94.1%
viability, T/C [4]: 97.9%
viability, T/C [5]: 106%
viability, T/C [6]: 101%
viability, T/C [7]: 98.8%
viability, T/C [8]: 99.4%
viability, T/C [9]: 102%
viability, T/C [10]: 107%
viability, T/C [11]: 103%
viability, T/C [12]: 97.3%
viability, T/C [13]: 99.3%
viability, T/C [14]: 99.9%
viability, T/C [15]: 99.8%
viability, T/C [16]: 97%
viability, T/C [17]: 104%
viability, T/C [18]: 102%
viability, T/C [19]: 102%
viability, T/C [20]: 98.4%
viability, T/C [21]: 93.5%
viability, T/C [22]: 103%
viability, T/C [23]: 104%
viability, T/C [24]: 89.8%
viability, T/C [25]: 107%
viability, T/C [26]: 93.2%
viability, T/C [27]: 92.3%
viability, T/C [28]: 96.5%
viability, T/C [29]: 99.8%
viability, T/C [30]: 98.3%
viability, T/C [31]: 97.2%
viability, T/C [32]: 98.7%
viability, T/C [33]: 102%
viability, T/C [34]: 103%
viability, T/C [35]: 101%
viability, T/C [36]: 104%
